Tested on: NanoLuc
Assay: NanoLuc luciferase reporter expression from constitutive promoters and RBSs integrated with pNBU2
Type: cell-based, B. thetaiotaomicron
Details: RBS combined with promoter PBT1311, NanoLuc reporter, three biological replicates

Point of comparison: “C45: RBS, SEQ ID NO: 124 (DNA TCCCGCATTTTAAAATAAAATAAATTATTCATTTAGTTAAACGAAT; chemistry not fully specified)”, “Average Luminescence (RLU/CFU)” value 0.0024 RLU/CFU. Against it:
- C7: RBS, SEQ ID NO: 20 (DNA TCCCGCATTTTAAAATAAAATAAATTATTAATTTACTTAAACGAAT; chemistry not fully specified) — higher, 0.03249 RLU/CFU
- C8: RBS, SEQ ID NO: 21 (DNA TCCCGCATTTTAAAATAAAATAAATTATTTATCGAATTAAACGAAT; chemistry not fully specified) — higher, 0.03132 RLU/CFU
- C9: RBS, SEQ ID NO: 23 (DNA TCCCGCATTTTAAAATAAAATAAATTATTGCTTTAATTAAACGAAT; chemistry not fully specified) — higher, 0.02988 RLU/CFU
- C10: RBS, SEQ ID NO: 31 (DNA TCCCGCATTTTAAAATAAAATAAATTATTATTTTAATTAAACGAAT; chemistry not fully specified) — higher, 0.02583 RLU/CFU
- C11: RBS, SEQ ID NO: 36 (DNA TCCCGCATTTTAAAATAAAATAAATTATTTTTTTACTTAAACGAAT; chemistry not fully specified) — higher, 0.02223 RLU/CFU
- C12: RBS, SEQ ID NO: 37 (DNA TCCCGCATTTTAAAATAAAATAAATTATTAGTTTAGTTAAACGAAT; chemistry not fully specified) — higher, 0.02151 RLU/CFU
- C13: RBS, SEQ ID NO: 38 (DNA TCCCGCATTTTAAAATAAAATAAATTATTAATTTAATTAAACGAAT; chemistry not fully specified) — higher, 0.02149 RLU/CFU
- C14: RBS, SEQ ID NO: 40 (DNA TCCCGCATTTTAAAATAAAATAAATTATTTCTTTACTTAAACGAAT; chemistry not fully specified) — higher, 0.02123 RLU/CFU
- C15: RBS, SEQ ID NO: 41 (DNA TCCCGCATTTTAAAATAAAATAAATTATTTCTTTAATTAAACGAAT; chemistry not fully specified) — higher, 0.02056 RLU/CFU
- C16: RBS, SEQ ID NO: 43 (DNA TCCCGCATTTTAAAATAAAATAAATTATTAGTTTAATTAAACGAAT; chemistry not fully specified) — higher, 0.0203 RLU/CFU
- C17: RBS, SEQ ID NO: 45 (DNA TCCCGCATTTTAAAATAAAATAAATTATTAGTTTATTTAAACGAAT; chemistry not fully specified) — higher, 0.01871 RLU/CFU
- C18: RBS, SEQ ID NO: 47 (DNA TCCCGCATTTTAAAATAAAATAAATTATTGTTTTACTTAAACGAAT; chemistry not fully specified) — higher, 0.01851 RLU/CFU
- C19: RBS, SEQ ID NO: 48 (DNA TCCCGCATTTTAAAATAAAATAAATTATTGCTTTAGTTAAACGAAT; chemistry not fully specified) — higher, 0.01835 RLU/CFU
- C20: RBS, SEQ ID NO: 51 (DNA TCCCGCATTTTAAAATAAAATAAATTATTGTTTTAGTTAAACGAAT; chemistry not fully specified) — higher, 0.01758 RLU/CFU
- C21: RBS, SEQ ID NO: 54 (DNA TCCCGCATTTTAAAATAAAATAAATTATTGGTTTAATTAAACGAAT; chemistry not fully specified) — higher, 0.01602 RLU/CFU
- C22: RBS, SEQ ID NO: 57 (DNA TCCCGCATTTTAAAATAAAATAAATTATTGTTTTAATTAAACGAAT; chemistry not fully specified) — higher, 0.01508 RLU/CFU
- C23: RBS, SEQ ID NO: 60 (DNA TCCCGCATTTTAAAATAAAATAAATTATTGATTTACTTAAACGAAT; chemistry not fully specified) — higher, 0.01469 RLU/CFU
- C24: RBS, SEQ ID NO: 67 (DNA TCCCGCATTTTAAAATAAAATAAATTATTTCTTTATTTAAACGAAT; chemistry not fully specified) — higher, 0.01287 RLU/CFU
- C25: RBS, SEQ ID NO: 72 (DNA TCCCGCATTTTAAAATAAAATAAATTATTATTTTACTTAAACGAAT; chemistry not fully specified) — higher, 0.01148 RLU/CFU
- C26: RBS, SEQ ID NO: 75 (DNA TCCCGCATTTTAAAATAAAATAAATTATTTATTTACTTAAACGAAT; chemistry not fully specified) — higher, 0.009775 RLU/CFU
- C27: RBS, SEQ ID NO: 76 (DNA TCCCGCATTTTAAAATAAAATAAATTATTTTTTTAGTTAAACGAAT; chemistry not fully specified) — higher, 0.009752 RLU/CFU
- C28: RBS, SEQ ID NO: 81 (DNA TCCCGCATTTTAAAATAAAATAAATTATTCATTTATTTAAACGAAT; chemistry not fully specified) — higher, 0.009278 RLU/CFU
- C29: RBS, SEQ ID NO: 86 (DNA TCCCGCATTTTAAAATAAAATAAATTATTTTTTTATTTAAACGAAT; chemistry not fully specified) — higher, 0.008233 RLU/CFU
- C30: RBS, SEQ ID NO: 88 (DNA TCCCGCATTTTAAAATAAAATAAATTATTTATTTATTTAAACGAAT; chemistry not fully specified) — higher, 0.008085 RLU/CFU
- C31: RBS, SEQ ID NO: 90 (DNA TCCCGCATTTTAAAATAAAATAAATTATTTATTTACTTAAACGAAT; chemistry not fully specified) — higher, 0.007861 RLU/CFU
- C32: RBS, SEQ ID NO: 91 (DNA TCCCGCATTTTAAAATAAAATAAATTATTGCTTTATTTAAACGAAT; chemistry not fully specified) — higher, 0.007717 RLU/CFU
- C33: RBS, SEQ ID NO: 93 (DNA TCCCGCATTTTAAAATAAAATAAATTATTAGTTTACTTAAACGAAT; chemistry not fully specified) — higher, 0.006912 RLU/CFU
- C34: RBS, SEQ ID NO: 96 (DNA TCCCGCATTTTAAAATAAAATAAATTATTCTTTTACTTAAACGAAT; chemistry not fully specified) — higher, 0.006727 RLU/CFU
- C35: RBS, SEQ ID NO: 99 (DNA TCCCGCATTTTAAAATAAAATAAATTATTCCTTTAATTAAACGAAT; chemistry not fully specified) — higher, 0.005815 RLU/CFU
- C36: RBS, SEQ ID NO: 100 (DNA TCCCGCATTTTAAAATAAAATAAATTATTACTTTATTTAAACGAAT; chemistry not fully specified) — higher, 0.005692 RLU/CFU
- C37: RBS, SEQ ID NO: 102 (DNA TCCCGCATTTTAAAATAAAATAAATTATTGGTTTAGTTAAACGAAT; chemistry not fully specified) — higher, 0.005598 RLU/CFU
- C38: RBS, SEQ ID NO: 108 (DNA TCCCGCATTTTAAAATAAAATAAATTATTCTTTTATTTAAACGAAT; chemistry not fully specified) — higher, 0.004774 RLU/CFU
- C39: RBS, SEQ ID NO: 109 (DNA TCCCGCATTTTAAAATAAAATAAATTATTCCTTTATTTAAACGAAT; chemistry not fully specified) — higher, 0.004534 RLU/CFU
- C40: RBS, SEQ ID NO: 115 (DNA TCCCGCATTTTAAAATAAAATAAATTATTCCTTTACTTAAACGAAT; chemistry not fully specified) — higher, 0.003759 RLU/CFU
- C41: RBS, SEQ ID NO: 117 (DNA TCCCGCATTTTAAAATAAAATAAATTATTGGTTTATTTAAACGAAT; chemistry not fully specified) — higher, 0.003107 RLU/CFU
- C42: RBS, SEQ ID NO: 119 (DNA TCCCGCATTTTAAAATAAAATAAATTATTCTTTTAGTTAAACGAAT; chemistry not fully specified) — higher, 0.002801 RLU/CFU
- C43: RBS, SEQ ID NO: 120 (DNA TCCCGCATTTTAAAATAAAATAAATTATTTCTTTAGTTAAACGAAT; chemistry not fully specified) — higher, 0.00264 RLU/CFU
- C44: RBS, SEQ ID NO: 122 (DNA TCCCGCATTTTAAAATAAAATAAATTATTTGTTTACTTAAACGAAT; chemistry not fully specified) — higher, 0.00249 RLU/CFU
- C46: RBS, SEQ ID NO: 125 (DNA TCCCGCATTTTAAAATAAAATAAATTATTTGTTTAGTTAAACGAAT; chemistry not fully specified) — lower, 0.001945 RLU/CFU
- C47: RBS, SEQ ID NO: 126 (DNA TCCCGCATTTTAAAATAAAATAAATTATTTGTTTAATTAAACGAAT; chemistry not fully specified) — lower, 0.00189 RLU/CFU
- C48: RBS, SEQ ID NO: 128 (DNA TCCCGCATTTTAAAATAAAATAAATTATTCCTTTAGTTAAACGAAT; chemistry not fully specified) — lower, 0.001758 RLU/CFU
- C49: RBS, SEQ ID NO: 129 (DNA TCCCGCATTTTAAAATAAAATAAATTATTGTTTTATTTAAACGAAT; chemistry not fully specified) — lower, 0.001598 RLU/CFU
- C50: RBS, SEQ ID NO: 132 (DNA TCCCGCATTTTAAAATAAAATAAATTATTTGTTTATTTAAACGAAT; chemistry not fully specified) — lower, 0.001261 RLU/CFU
- C51: RBS, SEQ ID NO: 136 (DNA TCCCGCATTTTAAAATAAAATAAATTATTATTTTATTTAAACGAAT; chemistry not fully specified) — lower, 0.0006273 RLU/CFU
- C52: RBS, SEQ ID NO: 138 (DNA TCCCGCATTTTAAAATAAAATAAATTATTGGTTTACTTAAACGAAT; chemistry not fully specified) — lower, 0.000163 RLU/CFU
- C53: RBS, SEQ ID NO: 140 (DNA TCCCGCATTTTAAAATAAAATAAATTATTCGTTTAATTAAACGAAT; chemistry not fully specified) — lower, 7.299E-05 RLU/CFU

Same assay, conditions: set of 8 RBSs, under control of PBT1311, NanoLuc reporter

Point of comparison: “C51: RBS, SEQ ID NO: 136 (DNA TCCCGCATTTTAAAATAAAATAAATTATTATTTTATTTAAACGAAT; chemistry not fully specified)”, “Expression Level (RLU/CFU)” value 6.27E-04 RLU/CFU. Against it:
- C33: RBS, SEQ ID NO: 93 (DNA TCCCGCATTTTAAAATAAAATAAATTATTAGTTTACTTAAACGAAT; chemistry not fully specified) — higher, 6.91E-03 RLU/CFU
- C52: RBS, SEQ ID NO: 138 (DNA TCCCGCATTTTAAAATAAAATAAATTATTGGTTTACTTAAACGAAT; chemistry not fully specified) — lower, 1.63E-04 RLU/CFU
- C53: RBS, SEQ ID NO: 140 (DNA TCCCGCATTTTAAAATAAAATAAATTATTCGTTTAATTAAACGAAT; chemistry not fully specified) — lower, 7.30E-05 RLU/CFU

From US11591604B2, “Gene expression in Bacteroides” (Massachusetts Institute of Technology, priority 2015, dated 2023)
